Measured values: a melting point compilation (Tetko et al.; mined from patent text by program, amines drawn as free bases though some values may be those of a salt)

melting point [°C] | Structure (SMILES)
94 to 96 | CC(C)(C)c1ccc(OC(Cc2ccc(OCCNC(=O)c3ccc(-c4ccccn4)cc3)cc2)C(=O)O)cc1 (configuration not stated)
163 to 166 | CCOC(=O)c1cc(NC(=O)c2ccccc2OC(C)=O)cc(Cl)c1O
224 to 226 | CCCc1nc2ccccc2n1Cc1ccc(C2=C(C(=O)O)CCC2)cc1
134 to 135 | CC(C)(C)NC(=O)[C@@H]1CN(NC(=O)OC(C)(C)C)CCN1NC(=O)Cc1ccccc1
162 to 163 | CCOC(=O)c1cc2cc(OCCOC)cc(N)c2[nH]1
202 to 205 | Cc1nc(NC(=O)NS(=O)(=O)c2ccccc2[N+](=O)[O-])nc2c1CCC2
197 to 198 | COc1cc2c(cc1O)CCN(C(=O)c1cccc(C#N)c1)C2=O
98 to 99 | CC1(COc2c(-c3ccc(S(C)(=O)=O)cc3)cnn(CC(F)(F)F)c2=O)CC1
> 200 | O=C1CNc2ncc(I)cc2N1Cc1cccc(F)c1C(F)(F)F
133 to 135 | O=Cc1ccc(OCC(F)(F)F)c(O)c1
201 to 202 | COC(=O)c1ccc(-c2cc(-c3ccccc3)on2)cc1
62 to 64 | CCOC(=O)C(OCC)C(=O)Nc1ccc(Br)cc1 (configuration not stated)
160 to 166 | CC(C)c1nc(CO)n(Cc2ccccc2[N+](=O)[O-])c1Sc1cc(Cl)cc(Cl)c1
167 | CC(=O)Oc1ccc(C(=O)Cl)cc1
147 to 149 | CCc1csc2nc(C(=O)OC)cn12
158 to 160 | CCOc1cc2c(Nc3cc(OC)c(Cl)cc3Cl)c(C#N)cnc2cc1C#CCCN1CCN(C)CC1
60 | Cc1c(Cc2nc(C(=O)O)cs2)n(S(=O)(=O)c2cccc(C(C)(C)C)c2)c2ccc(C(F)(F)F)cc12
149 to 150 | c1ccc2sc(-c3nc(COc4ccc(CCCn5ccnc5)cc4)co3)cc2c1
170 to 172 | O=C(NCc1ccccc1)C12CC3CC(CC(C3)C1)C2
90 | COC(=O)CCc1ccc(C(=O)CCl)cc1
83 to 85 | CCOC(=O)COc1cc2c(c(Cl)c1Cl)C(=O)C(C)(C(C)C)C2Br (configuration not stated)
106 | CC(C)(C)c1ccc(-c2cccc(-c3ccc(C(C)(C)C)cc3)c2N)cc1
129 to 131 | S=C(Nc1ccccc1)N(Cc1ccc(Br)cc1)C1CCCC1
152 to 156 | COc1ccc(C(N)=O)c(N)c1
139 to 150 | CCN1CCc2cc(Nc3ncc(Cl)c(N[C@@H]4CCCC[C@H]4NS(C)(=O)=O)n3)c(OC)cc2CC1=O

melting point [°C] | Structure (SMILES)
115 | O=C(c1ccc(C(F)(F)F)cc1Sc1ccccc1)c1cnoc1C1CC1
73 to 75 | O=C1C(=Cc2cccc(OCCCCl)c2)Cc2ccccc21
86 to 87 | COc1ccc(C(=O)c2sccc2O)cc1
136 to 139 | CC(Oc1ncn(-c2cccc(Cl)c2)n1)C(=O)N(C)C (configuration not stated)
199 to 206 | CCn1c(=O)c(Oc2ccc(F)cc2F)cc2cnc(NC3CCOCC3)nc21
191 to 192 | O=C(Nc1nnc[nH]1)c1ccc2ccccc2c1
93 | Cc1ccc2cc(-c3cccc4ccccc34)nc(Cl)c2c1
213 | N#CC(=Cc1ccc[nH]1)C(=O)O
159 to 160 | COc1ccc(-c2sc3c(c2C)c(=O)c(CO)cn3Cc2ccccc2F)cc1
123 to 124 | CCOc1ccc(-c2nc(Cn3cccc3C(C)=O)cs2)cc1OCC
98 to 100 | C=CCc1cccc2c(=O)cc(-c3ccc(F)cc3)oc12
81.5 to 83 | O=C(c1ccc(Cl)cc1)C(Br)c1ccc(Cl)cc1 (configuration not stated)
144 to 146 | CCOC(=O)N1CCc2nc(-c3ccncn3)cc(=O)n2CC1
165 to 168 | COc1cccc(C(O)CN(C)Cc2sc3c(=O)c(C(=O)NCc4ccc(Cl)cc4)cn(C)c3c2CO)c1 (configuration not stated)
102 to 104 | CCOC(=O)C1=C(C)NC(CSCCC#N)=C(C(=O)OCC)C1c1cccc([N+](=O)[O-])c1 (configuration not stated)
220 to 221 | Clc1ccc(Nc2nnc(Cc3ccncc3)c3ccncc23)cc1
83 to 84 | CCCCCCc1ccc(O)c(C(=O)O)c1
96 to 99 | COC(=O)Nc1cccc2c1C(=O)C1(O)c3ccc(C(C)C)cc3OC21O (configuration not stated)
120 to 121 | COc1ccccc1C(C#N)(CC1CCCCO1)Cn1cncn1 (configuration not stated)
105 to 107 | C1=C(c2c[nH]c3ccccc23)CN(Cc2ccccc2)CC1
87 to 88 | COc1cc(C=CC(=O)c2ccccc2)ccc1O
119 | CCOC(=O)C1(Cc2cccnc2)CCCN(C(=O)c2ccc(Nc3nccc(Nc4ccc(F)cc4)n3)cc2)C1 (configuration not stated)
91 to 93 | CCc1nc([N+](=O)[O-])c(CBr)n1C
235 to 240 | CCNC(=O)N1CCn2nc(-c3ccc(F)cc3)c(-c3ccncc3)c2N1
145 | O=C1C=CC(c2ccccc2)(c2ccccc2)C=C1O

melting point [°C] | Structure (SMILES)
228 to 231 | COc1ccc2c3c(oc2c1)CCC(C(=O)O)=C3
238 | CC(C)c1ccc(C(=O)C2=C(O)C(=O)N(c3ncc(Sc4ccc([N+](=O)[O-])cc4)s3)C2c2ccc(OC(F)(F)F)cc2)cc1 (configuration not stated)
89 to 91 | CC1CCCC(C)N1C(=O)C=Cc1ccc(C(F)(F)F)cc1 (configuration not stated)
104 to 106 | CCN(C=Nc1ccncc1O)CC
115 to 117 | CC(O)(c1nc2ccc(S(=O)(=O)c3ccccc3)cc2[nH]1)C(F)(F)F (configuration not stated)
60 to 61 | CCCc1c(OCCCOc2cc(O)c(-c3cocn3)cc2CC)cccc1Oc1ccccc1C(=O)O
146 to 148 | CC(C)c1cccc(C(C)C)c1NC(=O)CC(=O)CC(c1ccccc1)c1ccccc1
140 to 145 | O=C(O)c1cc2n(n1)CCC2
65 to 66 | O=Cc1cc([N+](=O)[O-])ccc1OC/C=C/CCl
82 to 83 | CC(=O)c1sc(N2CCN(CCC3CC3)C2=O)nc1C
269 to 271 | Oc1ccc(-c2cc3cc(O)cc(Cn4ccnc4)c3o2)cc1
261 | Cc1c(Nc2c(C#N)cnc3scc(C)c23)ccc2[nH]ccc12
100 to 105 | COc1cccc(-c2nc3cc(C4=NNC(=O)SC4C)ccc3n2CC(C)C)c1 (configuration not stated)
114 to 115 | CN(CCCNC(=S)c1cc(C(C)(C)C)c(O)c(C(C)(C)C)c1)CCOc1ccc2c(c1)OCO2
306 to 307 | CS(=O)(=O)c1ccc(-c2cnc3cnc(-c4ccc(O)cc4)nc3c2)cc1
105 to 106 | Cc1nc(NCCc2ccccc2)c2c(n1)N(c1ccccc1)CC2
196 to 199 | O=C1Nc2ccccc2C12CCCC(Br)C2 (configuration not stated)
175 to 178 | O=c1[nH]c(=O)n(Cc2ccc(Oc3ccc(Cn4oc(=O)[nH]c4=O)cc3)cc2)o1
133 to 136 | CC(=O)C(=NNc1ccc(C)cc1)Sc1ccc(Cl)cc1
90 to 92 | Cc1c(O[Si](C)(C)C(C)(C)C)cc(O[Si](C)(C)C(C)(C)C)c(C)c1C(=O)OCC(Cl)(Cl)Cl
142 to 143 | CC1=C(c2ccncc2)SC(OC(=O)c2cccc(Cl)c2)C(=O)N1 (configuration not stated)
194 to 196 | COc1cc2c(Nc3ccc(Oc4cccnc4)cc3)c(C#N)cnc2cc1N1CCC(N2CCCC2)CC1
248 to 249 | COC(=O)Cn1nnc(-c2ccc(C=Cc3ccc(-c4nc5ccccc5o4)cc3)cc2)c1C#N
138 to 142 | CCCCC1(c2cccc(O)c2)CCCCN(C)C1=O (configuration not stated)
221 to 222 | O=c1c2cc(F)c(N3CCCC3)nc2n(-c2ccccc2F)c(=O)n1OCc1ccccc1

melting point [°C] | Structure (SMILES)
116 to 120 | CN(C)C(=NC1CCCCC1)C(N)=S
123 | COc1cc(C)nc(N(C)C#N)n1
142 to 145 | CCOC(=O)Cc1c(C(=O)OCC)c(C)c(C(=O)OCC)n1CC
169 to 171 | CN1C(=O)C(C)(C)Oc2ccc(C3=NNC(=O)CC3)cc21
158 to 159 | Cc1ccc2c(c1)C=Cn1c(nnc1S(C)=O)C2 (configuration not stated)
134 to 137 | CC(C)(Oc1ccc(OCc2ccccc2)cc1)C(=O)O
72 to 74 | CC(C)(C)c1cc2c(Cl)ncnc2o1
253 to 256 | CC1CCCN(C(=O)C2Cc3cc(O)ccc3N2c2ccc(=O)n(C)n2)C1 (configuration not stated)
193 to 198 | COc1ccc(C=CC(=O)c2ccc(O)cc2)cc1OC
> 260 | CCCn1c(C)nc2cc(C(=O)O)ccc21
283 to 286 | O=C(O)Cc1cc(S)n2ncnc2n1
141 | COC(=O)COc1ccc(NC(=O)CCc2ccc(C#N)cc2)cc1
233 to 235 | CNC(=O)[C@H]1S[C@@H](n2cnc3c(N)nc(Cl)nc32)[C@H](O)[C@@H]1O
224 to 226 | O=c1[nH]c(CSCc2ccccc2)nc2nccnc12
127 to 129 | CCCN(CCC)C(=O)Cn1c(-c2ccc(OC)cc2)nc2cccnc21
191 to 192 | CCn1c(C(=O)OC)c(-c2ccc(OC)c(OC)c2)c2cc(OC)c(OC)cc21
193 to 195 | COCOCc1nc(N)c2ncc(OC)nc2n1
160 to 161 | Cc1cc(C=O)c2ccccc2c1O
84.5 to 86 | FC(F)(F)/C(=C(\c1ccccc1)c1ccc(OCCN2CCCC2)cc1)c1ccccc1
248 to 250 | O=c1ccc(S(=O)(=O)c2c[nH]c3ccccc23)n[nH]1
184 to 186 | CCCc1c(C(=O)NCc2ccc(-c3ccc(O)c(Br)c3)cc2)cnn1-c1ccccc1
85 to 86.5 | CC1(C)CCc2cc(S(=O)(=O)C[N+](=O)[O-])ccc2O1

Structure (SMILES) | melting point [°C]
Nc1ccc(Cl)cc1C(=O)c1ccc(Cl)cc1 | 106 to 107
Cn1c(C(F)(F)F)cc(=O)n(-c2cc(F)c([N+](=O)[O-])cc2F)c1=O | 150
N#CC(C#N)(CCSC(F)(F)C(F)Cl)CC(F)(F)C(F)(F)C(F)(F)C(F)F (configuration not stated) | 78 to 80
CN(C)CCc1c[nH]c2ccc(CCC(=O)NCc3ccc(NS(C)(=O)=O)cc3)cc12 | 78 to 82
CNC(=O)On1c(C(F)(F)F)nc2nc(Br)c(Cl)c(Br)c21 | 216
